Values quoted from earlier work, collected in patent US20110262436A1, “TREATMENT METHOD” (Genentech, Inc., priority 2008, published 2011).

Test system: advanced, treatment-refractory NSCLC
Conditions: phase III trial; cited from earlier work

## C#Cc1cccc(Nc2ncnc3cc(OCCOC)c(OCCOC)cc23)c1 [erlotinib, N-(3-ethynylphenyl)-6,7-bis(2-methoxyethoxy)-4-quinazolinamine]
  Survival, erlotinib monotherapy: significantly prolonged survival
